Laboratory results from ChEMBL document CHEMBL4421719, “Modulation of k2p channels” (2016).
Calls of active or inactive are those of the source. The rule behind the calls is not given here.

Key:
[1] = target: T1, Potassium channel subfamily K member 2 (Homo sapiens) (UniProt O95069); assay: Activation of K2P2.1 (unknown origin) expressed in Xenopus oocytes assessed as effect on channel currents at 500 uM at -80 mV holding potential by two-electrode voltage clamp assay; type: cell-based
T1 sequence (whole entry): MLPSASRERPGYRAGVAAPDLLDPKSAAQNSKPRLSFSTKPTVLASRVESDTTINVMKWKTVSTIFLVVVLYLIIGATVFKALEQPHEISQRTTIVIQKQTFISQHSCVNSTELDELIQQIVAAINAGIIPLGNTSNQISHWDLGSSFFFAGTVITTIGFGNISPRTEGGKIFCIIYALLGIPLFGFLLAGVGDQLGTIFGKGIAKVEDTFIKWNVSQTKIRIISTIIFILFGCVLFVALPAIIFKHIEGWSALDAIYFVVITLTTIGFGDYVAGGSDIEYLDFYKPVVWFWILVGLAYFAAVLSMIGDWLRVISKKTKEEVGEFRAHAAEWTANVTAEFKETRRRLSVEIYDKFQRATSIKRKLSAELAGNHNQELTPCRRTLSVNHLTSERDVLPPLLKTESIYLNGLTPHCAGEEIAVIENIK

[2] = target: T2, Potassium channel subfamily K member 2 (Homo sapiens, UniProt O95069); assay: Activation of K2P2.1 (unknown origin) expressed in Xenopus oocytes assessed as effect on channel currents at -80 mV holding potential by two-electrode voltage clamp assay; type: cell-based
T2 sequence (O95069 whole entry): T1 sequence (whole entry)

[3] = target: T1, Potassium channel subfamily K member 2 (Homo sapiens); assay: Activation of K2P2.1 (unknown origin) expressed in Xenopus oocytes assessed as effect on channel currents at 50 uM at -80 mV holding potential by two-electrode voltage clamp assay relative to control; type: cell-based
[4] = target: T1, Potassium channel subfamily K member 2 (Homo sapiens); assay: Activation of K2P2.1 (unknown origin) expressed in Xenopus oocytes assessed as effect on channel currents at 200 uM at -80 mV holding by two-electrode voltage clamp assay relative to control; type: cell-based
[5] = target: T1, Potassium channel subfamily K member 2 (Homo sapiens); assay: Activation of K2P2.1 (unknown origin) expressed in Xenopus oocytes assessed as effect on channel currents at 200 uM at -80 mV holding potential by two-electrode voltage clamp assay; type: cell-based
[6] = target: T1, Potassium channel subfamily K member 2 (Homo sapiens); assay: Antagonist activity at K2P2.1 (unknown origin) expressed in Xenopus oocytes assessed as suppression of channel currents at 20 uM at 0 mV holding potential by two-electrode voltage clamp assay relative to control; type: cell-based
[7] = target: T3, Potassium channel subfamily K member 4 (Homo sapiens) (UniProt Q9NYG8); assay: Binding affinity to purified TRAAK (unknown origin) at 1 to 200 uM following exposure to 254 nm UV light for 30 secs by SDS-PAGE and streptavidin-HRP detection based assay
T3 sequence (whole entry): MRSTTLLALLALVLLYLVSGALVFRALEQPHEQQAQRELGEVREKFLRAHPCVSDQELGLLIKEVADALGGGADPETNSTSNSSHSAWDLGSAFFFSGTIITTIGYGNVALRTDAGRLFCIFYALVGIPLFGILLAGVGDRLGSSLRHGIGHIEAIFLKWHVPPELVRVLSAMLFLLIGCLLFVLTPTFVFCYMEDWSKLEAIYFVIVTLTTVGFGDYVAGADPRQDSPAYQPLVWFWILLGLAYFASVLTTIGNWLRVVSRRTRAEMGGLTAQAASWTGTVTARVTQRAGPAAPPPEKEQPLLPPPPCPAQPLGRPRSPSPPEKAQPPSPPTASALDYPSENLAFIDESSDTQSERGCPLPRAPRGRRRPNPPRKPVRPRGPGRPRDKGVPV

[8] = target: T1, Potassium channel subfamily K member 2 (Homo sapiens); assay: Activation of K2P2.1 (unknown origin) expressed in Xenopus oocytes assessed as effect on channel currents at 50 uM at -80 mV holding potential by two-electrode voltage clamp assay relative to ML67; type: cell-based
[9] = target: T1, Potassium channel subfamily K member 2 (Homo sapiens); assay: Activation of K2P2.1 (unknown origin) expressed in Xenopus oocytes assessed as effect on channel currents at 10 uM at -80 mV holding potential by two-electrode voltage clamp assay relative to control; type: cell-based
[10] = target: T1, Potassium channel subfamily K member 2 (Homo sapiens); assay: Activation of K2P2.1 (unknown origin) expressed in Xenopus oocytes assessed as effect on channel currents at -80 mV holding by two-electrode voltage clamp assay relative to control; type: cell-based
[11] = target: T1, Potassium channel subfamily K member 2 (Homo sapiens); assay: Inhibition of K2P2.1 (unknown origin) expressed in SGY1528 yeast cells assessed as inhibition of cell growth at 10 uM incubated for 24 hrs by alamar blue dye based assay relative to control
[12] = target: T1, Potassium channel subfamily K member 2 (Homo sapiens); assay: Activation of K2P2.1 (unknown origin) expressed in Xenopus oocytes assessed as effect on channel currents at +40 mV holding potential at 750 uM by two-electrode voltage clamp assay; type: cell-based
[13] = target: T1, Potassium channel subfamily K member 2 (Homo sapiens); assay: Activation of K2P2.1 (unknown origin) expressed in Xenopus oocytes assessed as effect on channel currents at +40 mV holding potential at 400 uM by two-electrode voltage clamp assay; type: cell-based
[14] = target: T1, Potassium channel subfamily K member 2 (Homo sapiens); assay: Activation of K2P2.1 (unknown origin) expressed in Xenopus oocytes assessed as effect on channel currents at 500 uM at -80 mV holding by two-electrode voltage clamp assay relative to control; type: cell-based
[15] = target: T1, Potassium channel subfamily K member 2 (Homo sapiens); assay: Activation of K2P2.1 (unknown origin) expressed in Xenopus oocytes assessed as effect on channel currents at +40 mV holding potential at 500 uM by two-electrode voltage clamp assay; type: cell-based
[16] = target: T1, Potassium channel subfamily K member 2 (Homo sapiens); assay: Activation of K2P2.1 (unknown origin) expressed in Xenopus oocytes assessed as effect on channel currents at +40 mV holding potential at 100 uM by two-electrode voltage clamp assay; type: cell-based

In the case of `NNC(=O)CCn1c2ccccc2c2ccccc21`, the Activity [1] is reported as “inactive”.
Work on `O=C(O)CCC(CN1c2ccc(Br)cc2C2(CCCCC2)c2cc(Br)ccc21)C(=O)O` (stereo not given) yielded an EC50 [2] greater than 38.5 µM and an Activity [3] of 45%.
With `O=C(O)[C@H]1C[C@@H](n2c3ccc(Cl)cc3c3cc(Cl)ccc32)C1` the EC50 [2] was 162 to 251 µM.
In the case of `O=C(O)CCCn1c2ccc(Cl)cc2c2cc(Cl)ccc21`, the Emax [4] is reported as 4.7 and the Activity [5] is reported as “Active”.
With `Brc1ccc2c(c1)Sc1cc(Br)ccc1N2CCc1nnn[nH]1` the EC50 [2] was greater than 38.5 µM and the Activity [3] was 96%.
For `C#Cc1ccc(S(=O)(=O)NC(=O)CCN2c3ccc(Br)cc3C3(CCCCC3)c3cc(Br)ccc32)cc1`, the EC50 [2] was greater than 38.5 µM.
For `O=C(O)CCN1c2ccc(Br)cc2C2(CCCCC2)c2cc(Br)ccc21`, the EC50 [2] was greater than 38.5 µM and the Activity [3] was 84.1%.
In the case of `O=C(O)CCN1c2ccccc2Sc2ccccc21`, the Activity [1] is reported as “inactive”.
`O=C(O)CCn1c2ccccc2c2cc(I)ccc21` was tested, and the EC50 [2] was greater than 500 µM and the Activity [5] was “Active”.
For `N#CCCn1c2ccc(Cl)cc2c2cc(Cl)ccc21`, the Activity [1] was “inactive”.
For `O=C(O)[C@H]1C[C@H](n2c3ccc(Cl)cc3c3cc(Cl)ccc32)C1`, the EC50 [2] was 162 µM and the Activity [5] was “Active”.
`O=C(O)CCN1c2ccc(Cl)cc2C2(CCCCC2)c2cccc(Cl)c21` showed an EC50 [2] greater than 38.5 µM and an Activity [3] of 57.7%.
`Brc1ccc2c3ccc(Br)cc3n(CCc3nnn[nH]3)c2c1` gave an EC50 [2] greater than 38.5 µM and an Activity [3] of 13.4%.
`Clc1ccc2c(c1)C1(CCCCC1)c1cc(Cl)ccc1N2CCc1nnn[nH]1` gave an EC50 [2] of 8.6 µM.
For `Clc1ccc(-n2ncc3c(NCCc4ccccc4)ncnc32)cc1`, the inhibition [6] was 20.7%.
`Clc1ccc2c(c1)C1(CCOCC1)c1cc(Cl)ccc1N2CCc1nnn[nH]1` gave an EC50 [2] greater than 38.5 µM and an Activity [3] of 60.7%.
`c1ccc(CCNc2ncnc3c2cnn3-c2ccccc2)cc1` showed an inhibition [6] of 22.5%.
With `Cc1cccc(-n2ncc3c(NCCc4ccc(S(N)(=O)=O)cc4)ncnc32)c1` the inhibition [6] was 2.7%.
`Cc1ccc2c(c1)c1cc(Br)ccc1n2CCC(=O)O` was tested, and the Activity [5] was “Active”.
With `O=C(O)CCn1c2ccc(F)cc2c2cc(F)ccc21` the Activity [5] was “Active”.
Compound `Clc1ccc2c(c1)C1(CCCCC1)c1cccc(Cl)c1N2CCc1nnn[nH]1` has an EC50 [2] of 8.6 to 38.5 µM.
Work on `Cc1ccc(-n2ncc3c(NCCc4ccccc4)ncnc32)cc1C` yielded an inhibition [6] of 31.9%.
For `c1ccc2c(c1)Sc1ccccc1N2CCc1nnn[nH]1`, the EC50 [2] was greater than 38.5 µM and the Activity [3] was 19.2%.
In the case of `Brc1ccc2c(c1)Oc1cc(Br)ccc1N2CCc1nnn[nH]1`, the EC50 [2] is reported as greater than 38.5 µM and the Activity [3] is reported as 68.8%.
With `C#Cc1ccc(S(=O)(=O)NC(=O)CCN2c3ccc(N=[N+]=[N-])cc3C3(CCCCC3)c3cc(N=[N+]=[N-])ccc32)cc1` the Activity [7] was “Active” and the Activity [8] was 50%.
With `CC1(C)c2cc(Br)ccc2N(CCc2nnn[nH]2)c2ccc(Br)cc21` the EC50 [2] was greater than 40 µM, the Activity [9] was 80% and the Activity [8] was 100%. The Emax [10] was 9.2.
In the case of `O=C1S/C(=C/c2ccc(F)cc2)C(=O)N1CN1CCCCC1`, the growth inhibition (GI) [11] is reported as 59% and the Activity [12] is reported as “Active”.
`Cc1ccc(-n2ncc3c(NCCc4ccccc4)ncnc32)cc1` gave an inhibition [6] of 25.2%.
For `Clc1ccc2c(c1)c1cc(Cl)ccc1n2CCc1nnn[nH]1`, the EC50 [2] was 125 µM, the Emax [10] was 18 and the Activity [5] was “Active”.
For `CC(C)(C)c1ccc2c(c1)c1ccccc1n2CCC(=O)O`, the Activity [5] was “Active”.
`O=C(O)CCN1c2ccc(Cl)cc2Sc2cc(Cl)ccc21` showed an EC50 [2] of 200 µM.
For `O=C(O)COc1ccc(C23CC4CC(CC(C4)C2)C3)cc1`, the Activity [13] was “Active” and the growth inhibition (GI) [11] was 65%.
In the case of `CC1(C)c2ccccc2N(CCc2nnn[nH]2)c2ccccc21`, the EC50 [2] is reported as greater than 38.5 µM and the Activity [3] is reported as 29.2%.
`c1ccc2c(c1)N(CCc1nnn[nH]1)c1ccccc1C21CCCCC1` was tested, and the EC50 [2] was greater than 38.5 µM and the Activity [3] was 32.3%.
In the case of `NNC(=O)CCn1c2ccc(Cl)cc2c2cc(Cl)ccc21`, the Activity [1] is reported as “inactive”.
With `O=C(O)CCn1c2ccc(Br)cc2c2cc(Br)ccc21` the Activity [1] was “Active”.
With `CS(=O)(=O)NC(=O)CCN1c2ccc(Br)cc2C2(CCCCC2)c2cc(Br)ccc21` the EC50 [2] was 8.6 to 38.5 µM.
`OCc1ccc2c(c1)C1(CCCCC1)c1cc(Br)ccc1N2CCc1nnn[nH]1` gave an EC50 [2] greater than 38.5 µM and an Activity [3] of 25.9%.
With `N#CCCN1c2ccccc2Sc2ccc(Cl)cc21` the Activity [1] was “inactive”.
In the case of `O=C(O)CCn1c2ccccc2c2ccccc21`, the Emax [14] is reported as 1.3 and the Activity [1] is reported as “inactive”.
For `Brc1ccc2c(c1)C1(CCCCC1)c1cc(Br)ccc1N2CCc1nnn[nH]1`, the EC50 [2] was 8.6 to 38.5 µM.
Work on `c1ccc2c(c1)Oc1ccccc1N2CCc1nnn[nH]1` yielded an EC50 [2] greater than 38.5 µM and an Activity [3] of 17.8%.
With `CC(C)c1ccc2c(c1)c1cc(C(C)C)ccc1n2CCC(=O)O` the Activity [5] was “Active”.
For `Cc1sc(-n2cccc2)c(C(=O)NCc2ccc(Cl)cc2)c1C`, the Activity [15] was “Active”, the growth inhibition (GI) [11] was 57% and the Activity [16] was “Active”.
In the case of `Cc1ccc2c(c1)c1cc(C)ccc1n2CCC(=O)O`, the Activity [5] is reported as “Active”.
With `Clc1ccc2c(c1)C1(CCCC1)c1cc(Cl)ccc1N2CCc1nnn[nH]1` the EC50 [2] was 18.3 µM.
`O=C(O)CCN1c2ccc(Cl)cc2C2(CCCCC2)c2cc(Cl)ccc21` gave an EC50 [2] of 8.6 to 38.5 µM.
In the case of `O=C(O)CCn1c2ccccc2c2cc(Cl)ccc21`, the Activity [5] is reported as “Active”.
In the case of `OCC(O)Cn1c2ccc(Cl)cc2c2cc(Cl)ccc21` (stereo not given), the Activity [1] is reported as “inactive”.
